Earlier results as cited in patent EP1069913B1, “GELLING OPHTHALMIC COMPOSITIONS CONTAINING XANTHAN GUM” (Alcon Laboratories, Inc., priority 1998, dated 1999).

Settings: Maleate: second pKa; Boric Acid: in presence of 3.75 to 4.4 wt.% mannitol

Compound	pKa
OB(O)O [Boric Acid]	5.7-5.85
O=C(O)/C=C\C(=O)O [Maleate]	6.33
CC(C)(C)NC[C@H](O)COc1nsnc1N1CCOCC1 [Timolol, reference compound]	9.21
